According to the kinase profiling compilation of Christmann-Franck et al. (2016):

What was measured:
Test in all cases: radiometric filter-binding kinase assay
BRSK1 (human) = BRSK1 (human) (UniProt Q8TDC3)
BTK (human) = BTK (human) (UniProt Q06187)
CAMKK2 (human) = CAMKK2 (human) (UniProt Q96RR4)
CDK2 CCNA2 (human) = CDK2 CCNA2 (human) (UniProt P20248+P24941)
CSK (human) = CSK (human) (UniProt P41240); details: compound 10.0 µM
CaMK1 (human) = CaMK1 (human) (UniProt Q14012)
DYRK2 (human) = DYRK2 (human) (UniProt Q92630)
Sequence of DYRK2 (human) (Q92630 whole entry, looked up): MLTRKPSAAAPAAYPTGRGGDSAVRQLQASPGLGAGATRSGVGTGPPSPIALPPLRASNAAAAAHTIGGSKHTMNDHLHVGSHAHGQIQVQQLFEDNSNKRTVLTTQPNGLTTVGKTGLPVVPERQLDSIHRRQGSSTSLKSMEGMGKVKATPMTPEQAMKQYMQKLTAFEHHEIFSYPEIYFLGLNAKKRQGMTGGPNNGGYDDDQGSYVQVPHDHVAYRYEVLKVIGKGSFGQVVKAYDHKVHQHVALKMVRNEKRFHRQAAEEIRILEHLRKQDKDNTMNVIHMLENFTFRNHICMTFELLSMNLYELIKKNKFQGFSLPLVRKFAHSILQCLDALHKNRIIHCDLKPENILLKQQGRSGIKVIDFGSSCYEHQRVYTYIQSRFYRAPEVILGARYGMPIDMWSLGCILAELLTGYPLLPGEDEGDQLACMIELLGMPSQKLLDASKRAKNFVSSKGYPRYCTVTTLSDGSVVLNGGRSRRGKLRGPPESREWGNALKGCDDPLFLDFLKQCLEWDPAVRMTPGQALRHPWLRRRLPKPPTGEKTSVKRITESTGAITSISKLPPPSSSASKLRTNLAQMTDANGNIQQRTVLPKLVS

EPHA2 (human) = EPHA2 (human) (UniProt P29317)
Sequence of EPHA2 (human) (P29317 whole entry, looked up): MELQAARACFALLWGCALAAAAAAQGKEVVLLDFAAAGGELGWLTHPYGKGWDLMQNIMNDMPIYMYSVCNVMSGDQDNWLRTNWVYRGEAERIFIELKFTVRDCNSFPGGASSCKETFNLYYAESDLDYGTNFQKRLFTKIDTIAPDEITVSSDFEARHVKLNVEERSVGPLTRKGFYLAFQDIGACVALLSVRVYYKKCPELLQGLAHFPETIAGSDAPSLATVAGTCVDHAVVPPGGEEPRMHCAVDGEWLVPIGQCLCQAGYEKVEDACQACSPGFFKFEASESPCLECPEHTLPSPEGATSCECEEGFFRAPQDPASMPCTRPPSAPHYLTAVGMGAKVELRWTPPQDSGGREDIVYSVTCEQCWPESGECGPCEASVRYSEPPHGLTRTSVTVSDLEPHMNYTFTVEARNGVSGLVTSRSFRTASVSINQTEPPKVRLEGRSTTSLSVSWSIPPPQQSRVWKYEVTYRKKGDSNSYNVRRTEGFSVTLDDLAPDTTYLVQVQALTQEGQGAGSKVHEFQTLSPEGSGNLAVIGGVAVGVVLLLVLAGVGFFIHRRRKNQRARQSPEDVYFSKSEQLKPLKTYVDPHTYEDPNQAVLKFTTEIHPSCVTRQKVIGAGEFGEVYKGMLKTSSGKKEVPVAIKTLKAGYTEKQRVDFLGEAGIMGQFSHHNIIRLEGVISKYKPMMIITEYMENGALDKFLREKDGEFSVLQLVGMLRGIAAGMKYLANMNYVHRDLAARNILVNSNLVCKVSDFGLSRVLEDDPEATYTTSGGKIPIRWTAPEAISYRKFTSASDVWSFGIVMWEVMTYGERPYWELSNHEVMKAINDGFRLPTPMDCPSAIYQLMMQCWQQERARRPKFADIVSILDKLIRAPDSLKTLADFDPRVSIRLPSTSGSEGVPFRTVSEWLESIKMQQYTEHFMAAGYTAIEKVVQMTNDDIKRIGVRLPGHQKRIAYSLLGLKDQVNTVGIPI

EPHA4 (human) = EPHA4 (human) (UniProt P54764)
EPHB2 (human) = EPHB2 (human) (UniProt P29323)
Sequence of EPHB2 (human) (P29323 whole entry, looked up): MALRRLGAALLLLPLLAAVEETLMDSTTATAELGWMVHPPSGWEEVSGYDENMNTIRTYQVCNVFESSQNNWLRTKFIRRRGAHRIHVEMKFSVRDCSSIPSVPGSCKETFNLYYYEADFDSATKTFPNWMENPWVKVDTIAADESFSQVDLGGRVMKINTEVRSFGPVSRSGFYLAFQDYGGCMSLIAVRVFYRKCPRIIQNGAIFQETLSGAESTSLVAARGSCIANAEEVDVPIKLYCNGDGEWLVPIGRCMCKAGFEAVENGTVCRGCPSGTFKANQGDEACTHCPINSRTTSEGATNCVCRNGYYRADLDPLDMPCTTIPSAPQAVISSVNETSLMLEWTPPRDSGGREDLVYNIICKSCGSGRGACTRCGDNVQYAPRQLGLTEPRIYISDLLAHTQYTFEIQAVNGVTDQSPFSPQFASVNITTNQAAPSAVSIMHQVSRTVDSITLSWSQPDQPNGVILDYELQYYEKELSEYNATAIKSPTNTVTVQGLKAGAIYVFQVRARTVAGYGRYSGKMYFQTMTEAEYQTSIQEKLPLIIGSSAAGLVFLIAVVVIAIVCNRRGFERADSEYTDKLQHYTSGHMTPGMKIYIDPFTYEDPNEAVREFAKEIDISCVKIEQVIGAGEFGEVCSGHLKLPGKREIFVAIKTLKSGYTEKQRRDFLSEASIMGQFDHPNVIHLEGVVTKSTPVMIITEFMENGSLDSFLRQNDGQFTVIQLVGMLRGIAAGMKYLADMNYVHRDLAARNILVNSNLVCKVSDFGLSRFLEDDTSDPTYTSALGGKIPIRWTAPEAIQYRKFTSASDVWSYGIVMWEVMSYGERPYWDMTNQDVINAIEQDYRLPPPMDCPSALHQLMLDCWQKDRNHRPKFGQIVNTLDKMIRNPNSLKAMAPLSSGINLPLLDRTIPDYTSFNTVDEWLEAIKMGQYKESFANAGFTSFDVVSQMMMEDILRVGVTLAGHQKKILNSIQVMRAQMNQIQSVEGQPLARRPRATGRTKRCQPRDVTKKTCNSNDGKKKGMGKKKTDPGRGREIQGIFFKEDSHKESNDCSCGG

ERBB4 (human) = ERBB4 (human) (UniProt Q15303)
HIPK3 (human) = HIPK3 (human) (UniProt Q9H422)
INSR (human) = INSR (human) (UniProt P06213); details: compound 0.1 µM
INSRR (human) = INSRR (human) (UniProt P14616)
JAK2 JH1 JH2 (human) = JAK2 JH1 JH2 (human) (UniProt O60674)
LCK (mouse) = details: compound 1.0 µM; accession and sequence are those of the human protein
MAP2K1 (human) = MAP2K1 (human) (UniProt Q02750)
MAPK15 (human) = MAPK15 (human) (UniProt Q8TD08)
MAPKAPK2 (human) = MAPKAPK2 (human) (UniProt P49137)
MARK1 (human) = MARK1 (human) (UniProt Q9P0L2)
MARK2 (human) = MARK2 (human) (UniProt Q7KZI7)
MINK1 (human) = MINK1 (human) (UniProt Q8N4C8)
MKNK1 (human) = MKNK1 (human) (UniProt Q9BUB5)
MST4 (human) = MST4 (human) (UniProt Q9P289)
NEK2 (human) = NEK2 (human) (UniProt P51955)
NEK6 (human) = NEK6 (human) (UniProt Q9HC98)
NUAK1 (human) = NUAK1 (human) (UniProt O60285)
PAK7 (human) = PAK7 (human) (UniProt Q9P286)
Sequence of PAK7 (human) (Q9P286 whole entry, looked up): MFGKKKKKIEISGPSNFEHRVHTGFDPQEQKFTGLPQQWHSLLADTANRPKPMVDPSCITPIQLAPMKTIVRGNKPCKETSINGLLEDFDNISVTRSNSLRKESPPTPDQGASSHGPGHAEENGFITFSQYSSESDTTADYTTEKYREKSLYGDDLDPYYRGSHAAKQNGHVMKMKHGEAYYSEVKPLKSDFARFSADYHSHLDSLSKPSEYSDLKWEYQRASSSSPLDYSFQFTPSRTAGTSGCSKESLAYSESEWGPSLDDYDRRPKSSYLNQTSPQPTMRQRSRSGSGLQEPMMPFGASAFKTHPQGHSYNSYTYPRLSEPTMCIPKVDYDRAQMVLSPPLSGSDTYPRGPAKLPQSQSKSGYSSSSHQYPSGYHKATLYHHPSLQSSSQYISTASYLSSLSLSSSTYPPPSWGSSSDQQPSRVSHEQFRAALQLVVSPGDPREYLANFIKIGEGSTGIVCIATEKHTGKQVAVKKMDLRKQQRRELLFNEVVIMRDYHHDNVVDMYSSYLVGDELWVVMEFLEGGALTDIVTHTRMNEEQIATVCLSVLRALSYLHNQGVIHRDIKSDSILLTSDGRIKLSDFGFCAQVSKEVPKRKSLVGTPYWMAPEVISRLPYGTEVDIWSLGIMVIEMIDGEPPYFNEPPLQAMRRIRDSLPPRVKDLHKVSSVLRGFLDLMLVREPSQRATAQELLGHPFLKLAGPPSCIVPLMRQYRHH

PHKG1 (human) = PHKG1 (human) (UniProt Q16816)
PRKAA1 or PRKAA2 (rat) = details: accession and sequence are those of the human protein
PRKACA (human) = PRKACA (human) (UniProt P17612)
PRKCA (human) = PRKCA (human) (UniProt P17252)
RIPK2 (human) = RIPK2 (human) (UniProt O43353)
RPS6KA5 KD1 KD2 (human) = RPS6KA5 KD1 KD2 (human) (UniProt O75582)
SRPK1 (human) = SRPK1 (human) (UniProt Q96SB4)

Sequence of BTK (human) (Q06187 whole entry, looked up): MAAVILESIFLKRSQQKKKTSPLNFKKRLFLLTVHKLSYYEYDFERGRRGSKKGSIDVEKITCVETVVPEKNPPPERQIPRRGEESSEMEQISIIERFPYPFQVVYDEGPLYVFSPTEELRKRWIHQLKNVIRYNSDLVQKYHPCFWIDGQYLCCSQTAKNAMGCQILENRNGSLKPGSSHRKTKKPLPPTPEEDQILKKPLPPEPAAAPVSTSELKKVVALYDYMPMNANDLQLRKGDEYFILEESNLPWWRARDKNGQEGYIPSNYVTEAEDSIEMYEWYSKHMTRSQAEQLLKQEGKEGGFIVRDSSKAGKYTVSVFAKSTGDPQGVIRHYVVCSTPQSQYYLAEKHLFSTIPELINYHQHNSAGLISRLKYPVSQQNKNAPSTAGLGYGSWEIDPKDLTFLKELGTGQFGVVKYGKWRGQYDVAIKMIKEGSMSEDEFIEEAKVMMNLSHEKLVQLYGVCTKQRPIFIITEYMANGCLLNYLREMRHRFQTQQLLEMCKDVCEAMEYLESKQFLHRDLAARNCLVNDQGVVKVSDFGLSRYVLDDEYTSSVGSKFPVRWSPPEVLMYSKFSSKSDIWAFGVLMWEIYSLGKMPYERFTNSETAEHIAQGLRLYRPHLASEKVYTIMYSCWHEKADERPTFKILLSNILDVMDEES
Sequence of BRSK1 (human) (Q8TDC3 whole entry, looked up): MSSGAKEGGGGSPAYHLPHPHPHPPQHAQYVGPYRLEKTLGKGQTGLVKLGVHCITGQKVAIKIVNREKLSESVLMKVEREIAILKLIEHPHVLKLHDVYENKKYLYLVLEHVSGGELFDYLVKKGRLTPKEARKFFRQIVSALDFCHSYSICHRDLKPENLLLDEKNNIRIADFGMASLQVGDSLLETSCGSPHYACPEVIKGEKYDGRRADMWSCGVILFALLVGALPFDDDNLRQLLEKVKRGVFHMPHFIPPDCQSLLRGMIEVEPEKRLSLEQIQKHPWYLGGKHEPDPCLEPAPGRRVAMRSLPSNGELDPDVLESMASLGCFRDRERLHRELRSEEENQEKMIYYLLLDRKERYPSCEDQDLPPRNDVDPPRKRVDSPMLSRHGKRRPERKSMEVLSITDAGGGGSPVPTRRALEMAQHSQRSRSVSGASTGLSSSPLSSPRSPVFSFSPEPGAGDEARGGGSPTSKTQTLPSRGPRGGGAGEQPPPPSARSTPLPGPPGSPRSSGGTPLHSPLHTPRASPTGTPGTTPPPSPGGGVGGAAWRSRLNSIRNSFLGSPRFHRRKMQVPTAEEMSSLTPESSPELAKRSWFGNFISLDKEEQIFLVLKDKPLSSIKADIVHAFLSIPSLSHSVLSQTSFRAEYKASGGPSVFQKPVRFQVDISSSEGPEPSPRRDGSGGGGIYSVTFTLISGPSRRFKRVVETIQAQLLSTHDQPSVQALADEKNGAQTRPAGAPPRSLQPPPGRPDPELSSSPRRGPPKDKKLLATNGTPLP

## Cc1ccc(-c2ccc3c(ccc4sc5c(c43)NC[C@@H](C)NC5=O)n2)cn1
BRSK1 (human); compound 0.1 µM
  residual activity: 86%
BRSK1 (human); compound 1.0 µM
  residual activity: 55%
BRSK1 (human); compound 10.0 µM
  residual activity: 29%
BTK (human); compound 0.1 µM
  residual activity: 120%
BTK (human); compound 1.0 µM
  residual activity: 118%
BTK (human); compound 10.0 µM
  residual activity: 107%
CAMKK2 (human); compound 0.1 µM
  residual activity: 107%
CAMKK2 (human); compound 10.0 µM
  residual activity: 28%
CDK2 CCNA2 (human); compound 0.1 µM
  residual activity: 111%
CDK2 CCNA2 (human); compound 1.0 µM
  residual activity: 93%
CDK2 CCNA2 (human); compound 10.0 µM
  residual activity: 57%
CSK (human)
  residual activity: 106%
CaMK1 (human); compound 0.1 µM
  residual activity: 96%
CaMK1 (human); compound 1.0 µM
  residual activity: 97%
CaMK1 (human); compound 10.0 µM
  residual activity: 68%
DYRK2 (human); compound 0.1 µM
  residual activity: 101%
DYRK2 (human); compound 1.0 µM
  residual activity: 105%
DYRK2 (human); compound 10.0 µM
  residual activity: 52%
EPHA2 (human); compound 0.1 µM
  residual activity: 90%
EPHA2 (human); compound 1.0 µM
  residual activity: 95%
EPHA2 (human); compound 10.0 µM
  residual activity: 76%
EPHA4 (human); compound 0.1 µM
  residual activity: 99%
EPHA4 (human); compound 1.0 µM
  residual activity: 103%
EPHA4 (human); compound 10.0 µM
  residual activity: 78%
EPHB2 (human); compound 0.1 µM
  residual activity: 99%
EPHB2 (human); compound 1.0 µM
  residual activity: 110%
EPHB2 (human); compound 10.0 µM
  residual activity: 111%
ERBB4 (human); compound 0.1 µM
  residual activity: 92%
ERBB4 (human); compound 1.0 µM
  residual activity: 105%
ERBB4 (human); compound 10.0 µM
  residual activity: 99%
HIPK3 (human); compound 0.1 µM
  residual activity: 112%
HIPK3 (human); compound 1.0 µM
  residual activity: 108%
HIPK3 (human); compound 10.0 µM
  residual activity: 96%
INSR (human)
  residual activity: 123%
INSRR (human); compound 0.1 µM
  residual activity: 99%
INSRR (human); compound 1.0 µM
  residual activity: 79%
INSRR (human); compound 10.0 µM
  residual activity: 53%
JAK2 JH1 JH2 (human); compound 0.1 µM
  residual activity: 101%
JAK2 JH1 JH2 (human); compound 1.0 µM
  residual activity: 102%
JAK2 JH1 JH2 (human); compound 10.0 µM
  residual activity: 79%
LCK (mouse)
  residual activity: 95%
MAP2K1 (human); compound 0.1 µM
  residual activity: 101%
MAP2K1 (human); compound 1.0 µM
  residual activity: 97%
MAP2K1 (human); compound 10.0 µM
  residual activity: 69%
MAPK15 (human); compound 0.1 µM
  residual activity: 96%
MAPK15 (human); compound 1.0 µM
  residual activity: 79%
MAPK15 (human); compound 10.0 µM
  residual activity: 38%
MAPKAPK2 (human); compound 0.1 µM
  residual activity: 24%
MAPKAPK2 (human); compound 1.0 µM
  residual activity: 9%
MAPKAPK2 (human); compound 10.0 µM
  residual activity: 2%
MARK1 (human); compound 0.1 µM
  residual activity: 116%
MARK1 (human); compound 1.0 µM
  residual activity: 107%
MARK1 (human); compound 10.0 µM
  residual activity: 93%
MARK2 (human); compound 0.1 µM
  residual activity: 116%
MARK2 (human); compound 1.0 µM
  residual activity: 113%
MARK2 (human); compound 10.0 µM
  residual activity: 95%
MINK1 (human); compound 1.0 µM
  residual activity: 97%
MINK1 (human); compound 10.0 µM
  residual activity: 40%
MKNK1 (human); compound 0.1 µM
  residual activity: 105%
MKNK1 (human); compound 1.0 µM
  residual activity: 103%
MKNK1 (human); compound 10.0 µM
  residual activity: 83%
MST4 (human); compound 1.0 µM
  residual activity: 101%
MST4 (human); compound 10.0 µM
  residual activity: 91%
NEK2 (human); compound 0.1 µM
  residual activity: 108%
NEK2 (human); compound 1.0 µM
  residual activity: 99%
NEK2 (human); compound 10.0 µM
  residual activity: 88%
NEK6 (human); compound 0.1 µM
  residual activity: 109%
NEK6 (human); compound 1.0 µM
  residual activity: 96%
NEK6 (human); compound 10.0 µM
  residual activity: 66%
NUAK1 (human); compound 1.0 µM
  residual activity: 102%
NUAK1 (human); compound 10.0 µM
  residual activity: 58%
PAK7 (human); compound 0.1 µM
  residual activity: 108%
PAK7 (human); compound 1.0 µM
  residual activity: 101%
PAK7 (human); compound 10.0 µM
  residual activity: 101%
PHKG1 (human); compound 0.1 µM
  residual activity: 110%
PHKG1 (human); compound 1.0 µM
  residual activity: 91%
PHKG1 (human); compound 10.0 µM
  residual activity: 86%
PRKAA1 or PRKAA2 (rat); compound 0.1 µM
  residual activity: 93%
PRKAA1 or PRKAA2 (rat); compound 1.0 µM
  residual activity: 38%
PRKAA1 or PRKAA2 (rat); compound 10.0 µM
  residual activity: 9%
PRKACA (human); compound 0.1 µM
  residual activity: 109%
PRKACA (human); compound 1.0 µM
  residual activity: 119%
PRKACA (human); compound 10.0 µM
  residual activity: 108%
PRKCA (human); compound 0.1 µM
  residual activity: 101%
PRKCA (human); compound 10.0 µM
  residual activity: 90%
RIPK2 (human); compound 0.1 µM
  residual activity: 93%
RIPK2 (human); compound 10.0 µM
  residual activity: 39%
RPS6KA5 KD1 KD2 (human); compound 0.1 µM
  residual activity: 120%
RPS6KA5 KD1 KD2 (human); compound 1.0 µM
  residual activity: 105%
RPS6KA5 KD1 KD2 (human); compound 10.0 µM
  residual activity: 99%
SRPK1 (human); compound 0.1 µM
  residual activity: 89%
SRPK1 (human); compound 1.0 µM
  residual activity: 63%
SRPK1 (human); compound 10.0 µM
  residual activity: 19%
